Data on one substance can be found in patent US11119094B2, “Aqueous citrate-buffered metal solutions” (CD DIAGNOSTICS, INC., priority 2017, dated 2021).

The subject of one test is mononuclear cells. In words: Lymphocyte Transformation Test with PWM positive control in the presence of metals (toxicity). Type of test: cell-based. The settings on record: metals stabilized with citrate. The source says: In this example, each metal tested was stabilized with citrate.
Another test concerns lymphocytes. Description: Lymphocyte Transformation Test for metal sensitivity (stimulation index). Type of test: cell-based. As to conditions: SI≥4 positive. The text has this:
The Lymphocyte Transformation Test used for Metal Sensitivity Testing measures cell proliferation relative to a negative control.

As to polkweed mitogen [PWM], the “Stimulation Index for PWM in the presence of 0.1 mM metals” value in the test on mononuclear cells (Donor LS 23 89053D) is listed as 217; in the test on mononuclear cells (Donor LS 23 89054C), 40; in the test on mononuclear cells (Donor LS 23 89058C), 202; with mononuclear cells (Donor LS 23 89063E), 362. For the same substance, the “Stimulation Index” value in the test with lymphocytes (Subject 19A, 6 Dec. 2016, assay with citrate) was 108.15; in the test with lymphocytes (Subject 19A, 15 Jul. 2016, assay without citrate), 124; with lymphocytes (Subject 21R, 3 Feb. 2017, assay with citrate), 75.85; in the test on lymphocytes (Subject 21R, 19 Jul. 2016, assay without citrate) it was 223; in the test with lymphocytes (Subject 20112, 11 Jan. 2017, assay with citrate), 691.43; with lymphocytes (Subject 20112, 11 Nov. 2016, assay without citrate), 669.51. Moreover, the “Stimulation Index” value in the test on lymphocytes (Subject 71390, 4 Nov. 2016, assay without citrate) is listed as 119.6; with lymphocytes (Subject 71390, 11 Jan. 2017, assay with citrate), 128.6.
